pKi: −log10 of the molar value.
How the values were obtained:
[1] = target: Histamine H3 receptor (Homo sapiens, UniProt Q9Y5N1); test: Antagonist activity at human histamine H3 receptor expressed in CHOK1 cells assessed as inhibition of GTPgammaS binding; format: functional, cell-based, CHO-K1
[2] = system: Liver microsome; test: Intrinsic clearance in rat liver microsomes; format: ADME
[3] = system: Rattus norvegicus; test: Reversal of RAMH-induced dipsogenia in Lister Hooded rat at 3 mg/kg, po treated 2 hrs before RAMH challenge measured after 1 hr; format: functional
[4] = system: Blood; test: Drug level in rat blood at 3 mg/kg, po; format: ADME, organism-based; set-up: dose 3 mg/kg, route oral; details: in vivo, read-out: Drug uptake
[5] = system: Rattus norvegicus; test: Ex vivo binding affinity to histamine H3 receptor in rat cerebral cortex using [3H]-R-alpha-ethylhistamine at 3 mg/kg, po after 3 hrs by HPLC analysis; format: functional
[6] = target: Histamine H3 receptor (Rattus norvegicus, UniProt Q9QYN8); test: Displacement of [3H]-R-alpha-ethylhistamine from histamine H3 receptor in rat cerebral cortical tissue membranes after 45 mins by liquid scintillation spectrometry
[7] = system: Rattus norvegicus; test: Ex vivo binding affinity to histamine H3 receptor in rat cerebral cortex using [3H]-R-alpha-ethylhistamine at 0.3 mg/kg, po after 3 hrs by HPLC analysis; format: functional
[8] = system: Rattus norvegicus; test: Ex vivo binding affinity to histamine H3 receptor in po dosed rat cerebral cortex using [3H]-R-alpha-ethylhistamine after 2 hrs by HPLC analysis; format: functional
[9] = system: Rattus norvegicus; test: Reversal of RAMH-induced dipsogenia in po dosed Lister Hooded rat treated 2 hrs before RAMH challenge measured after 1 hr; format: functional
[10] = Ratio of drug level in brain to blood in rat at 3 mg/kg, po; format: ADME, organism-based; set-up: dose 3 mg/kg, route oral

Histamine H3 receptor (Homo sapiens, UniProt Q9Y5N1), sequence (Q9Y5N1 whole entry): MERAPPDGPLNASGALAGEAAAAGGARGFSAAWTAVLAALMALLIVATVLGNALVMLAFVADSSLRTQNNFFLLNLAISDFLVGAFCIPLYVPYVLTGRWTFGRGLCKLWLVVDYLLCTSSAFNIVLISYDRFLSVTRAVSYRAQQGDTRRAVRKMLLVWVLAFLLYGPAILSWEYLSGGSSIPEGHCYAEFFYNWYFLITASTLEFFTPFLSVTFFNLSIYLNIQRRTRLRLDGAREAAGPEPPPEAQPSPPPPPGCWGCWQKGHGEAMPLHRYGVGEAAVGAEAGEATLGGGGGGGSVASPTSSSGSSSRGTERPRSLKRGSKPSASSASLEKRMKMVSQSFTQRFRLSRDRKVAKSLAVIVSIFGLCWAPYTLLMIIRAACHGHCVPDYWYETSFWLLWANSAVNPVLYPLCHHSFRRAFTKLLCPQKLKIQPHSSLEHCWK
Histamine H3 receptor (Rattus norvegicus, UniProt Q9QYN8), sequence (Q9QYN8 whole entry): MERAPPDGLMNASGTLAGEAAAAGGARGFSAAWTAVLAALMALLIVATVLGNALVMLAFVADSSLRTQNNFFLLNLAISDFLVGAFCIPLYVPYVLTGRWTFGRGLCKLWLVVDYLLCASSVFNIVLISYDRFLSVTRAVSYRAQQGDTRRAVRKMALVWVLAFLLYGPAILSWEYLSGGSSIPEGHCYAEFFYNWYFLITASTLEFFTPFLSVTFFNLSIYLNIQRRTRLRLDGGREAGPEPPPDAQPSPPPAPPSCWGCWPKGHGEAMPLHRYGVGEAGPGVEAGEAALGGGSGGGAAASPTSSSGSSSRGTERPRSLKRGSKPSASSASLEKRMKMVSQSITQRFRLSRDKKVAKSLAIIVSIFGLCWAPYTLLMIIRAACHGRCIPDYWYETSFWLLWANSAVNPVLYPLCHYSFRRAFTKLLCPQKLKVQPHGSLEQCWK

| Compound | pKi [1] | Activity [5] [%] | pKi [6] | also measured |
| --- | --- | --- | --- | --- |
| c1ccc(Oc2ccc3c(c2)CCN(C2CCC2)CC3)nc1 | 9.10 |  |  |  |
| O=C(c1ccc(Oc2ccc3c(c2)CCN(C2CCC2)CC3)nc1)N1CCCC1 | 9.60 | 65 | 9.20 | CLH [2]: < 3 mL/min/g; Activity [3]: 78%; concentration [4]: 10 nM |
| c1cnc(Oc2ccc3c(c2)CCN(C2CCC2)CC3)nc1 | 8.60 |  |  |  |
| O=C1CCCCN1c1ccc(Oc2ccc3c(c2)CCN(C2CCC2)CC3)nc1 | 9.50 | 10 | 8.60 |  |
| CC(=O)c1ccc(Oc2ccc3c(c2)CCN(C2CCC2)CC3)cn1 | 10.00 |  | 9.20 | Activity [7]: 66% |
| c1ccc(Oc2ccc3c(c2)CCN(C2CCC2)CC3)cc1 | 8.50 |  |  |  |
| CN1CCN(c2ccc(Oc3ccc4c(c3)CCN(C3CCC3)CC4)nc2)C1=O | 10.00 | 81 | 9.00 | ED50 [8]: 1.9 mg/kg |
| CCNC(=O)c1ccc(Oc2ccc3c(c2)CCN(C2CCC2)CC3)cn1 | 9.20 | 62 | 8.40 |  |
| O=C(N1CCOCC1)N1CCC(Oc2ccc3c(c2)CCN(C2CCC2)CC3)CC1 |  | 43 |  | Activity [3]: 100%; ED50 [8]: 2 mg/kg |
| O=C1OCCN1c1ccc(Oc2ccc3c(c2)CCN(C2CCC2)CC3)nc1 | 9.80 |  | 9.10 | Activity [7]: 44% |
| O=C1CCCN1c1ccc(Oc2ccc3c(c2)CCN(C2CCCC2)CC3)nc1 | 9.90 | 88 | 9.10 | ED50 [9]: 0.04 mg/kg; Kp [10]: 1; concentration [4]: 550 nM; ED50 [8]: 0.1 mg/kg |
| c1cncc(Oc2ccc3c(c2)CCN(C2CCC2)CC3)c1 | 8.60 |  |  |  |
| O=C1C[C@@H](O)CN1c1ccc(Oc2ccc3c(c2)CCN(C2CCC2)CC3)nc1 | 9.70 | 56 | 8.80 |  |
| CC(=O)Nc1ccc(Oc2ccc3c(c2)CCN(C2CCC2)CC3)nc1 | 9.70 | 89 | 9.00 | Kp [10]: 0.8; concentration [4]: 1200 nM; ED50 [8]: 0.32 mg/kg |
| CNC(=O)c1ccc(Oc2ccc3c(c2)CCN(C2CCC2)CC3)cc1 | 9.30 | 68 | 8.30 | Kp [10]: 2.5; concentration [4]: 540 nM |
| O=C1CCN1c1ccc(Oc2ccc3c(c2)CCN(C2CCC2)CC3)nc1 | 10.10 |  | 9.70 | Activity [7]: 21% |

— ChEMBL document CHEMBL3091402, “Identification of clinical candidates from the benzazepine class of histamine H3 receptor antagonists” (Bioorg Med Chem Lett, 2013)
